According to ChEMBL document CHEMBL4507276 (2021):

What was measured:
[1] = biological target: Protein kinase C epsilon type (Homo sapiens) (UniProt Q02156); settings: Compound concentration 1000.0 nM
[2] = biological target: 5-hydroxytryptamine receptor 6 (Homo sapiens) (UniProt P50406); assay: 5HT6/H Cerep selectivity data (BI); settings: Compound concentration 20.0 uM
Caspase-3 (Homo sapiens) = Caspase-3 (Homo sapiens) (UniProt P42574); assay: CASPASE-3 Cerep selectivity data (BI); settings: Compound concentration 20.0 uM
Caspase-3 (Homo sapiens), sequence (P42574 29-175 limits assumed): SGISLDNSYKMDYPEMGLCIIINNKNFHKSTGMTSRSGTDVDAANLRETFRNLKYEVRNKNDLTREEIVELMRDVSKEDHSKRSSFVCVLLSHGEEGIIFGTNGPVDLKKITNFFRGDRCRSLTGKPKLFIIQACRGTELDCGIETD
Caspase-3 (Homo sapiens), sequence (P42574 176-277 limits assumed): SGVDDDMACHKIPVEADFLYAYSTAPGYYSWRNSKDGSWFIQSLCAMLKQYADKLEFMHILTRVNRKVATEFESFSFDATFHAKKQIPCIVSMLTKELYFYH

[3] = biological target: Mitogen-activated protein kinase 1 (Homo sapiens) (UniProt P28482); assay: ERK2(P42MAPK)_CE Cerep selectivity data (BI); settings: Compound concentration 20.0 uM
Mitogen-activated protein kinase 1 (Homo sapiens), sequence (P28482 whole entry): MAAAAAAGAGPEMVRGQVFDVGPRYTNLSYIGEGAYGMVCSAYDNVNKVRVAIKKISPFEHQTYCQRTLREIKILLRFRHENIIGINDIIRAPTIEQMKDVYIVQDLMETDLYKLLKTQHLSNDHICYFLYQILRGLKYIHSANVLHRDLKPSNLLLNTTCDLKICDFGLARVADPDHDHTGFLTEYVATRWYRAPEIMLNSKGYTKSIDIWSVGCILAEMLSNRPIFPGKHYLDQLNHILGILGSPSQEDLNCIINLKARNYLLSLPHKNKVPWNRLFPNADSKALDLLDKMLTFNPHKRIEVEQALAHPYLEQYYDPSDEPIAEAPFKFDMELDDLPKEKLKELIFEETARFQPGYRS

[4] = biological target: Neprilysin (Homo sapiens) (UniProt P08473); assay: N_ENDOPEP Cerep selectivity data (BI); settings: Compound concentration 20.0 uM
[5] = biological target: Thyroid hormone receptor alpha (Rattus norvegicus) (UniProt P63059); assay: TRTH_AGON Cerep selectivity data (BI); settings: filed as agonist, Compound concentration 20.0 uM
Thyroid hormone receptor alpha (Rattus norvegicus), sequence (P63059 whole entry, canonical isoform): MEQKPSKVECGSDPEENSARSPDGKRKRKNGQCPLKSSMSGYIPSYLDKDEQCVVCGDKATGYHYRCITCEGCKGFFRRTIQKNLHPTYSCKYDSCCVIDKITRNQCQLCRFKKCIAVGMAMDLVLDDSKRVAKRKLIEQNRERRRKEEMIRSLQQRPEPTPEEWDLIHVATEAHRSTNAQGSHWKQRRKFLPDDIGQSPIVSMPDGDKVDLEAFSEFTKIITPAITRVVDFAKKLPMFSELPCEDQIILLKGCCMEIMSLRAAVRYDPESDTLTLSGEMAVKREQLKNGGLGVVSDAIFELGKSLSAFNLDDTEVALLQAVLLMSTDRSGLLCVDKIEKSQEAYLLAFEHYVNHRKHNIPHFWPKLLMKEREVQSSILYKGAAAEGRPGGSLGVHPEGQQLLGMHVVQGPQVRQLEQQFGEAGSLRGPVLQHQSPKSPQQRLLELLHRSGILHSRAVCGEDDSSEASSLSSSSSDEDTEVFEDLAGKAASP

[6] = biological target: ATP-sensitive inward rectifier potassium channel 1 isoform X1 (Mesocricetus auratus) (UniProt A0A1U8CU73); assay: K+/KATP/HA Eurofins-Panlabs selectivity data (BI); settings: Compound concentration 10.0 uM
[7] = biological target: Serine/threonine-protein kinase Chk2 (Homo sapiens) (UniProt O96017); assay: CHEK2 Invitrogen selectivity data (BI); settings: Compound concentration 3.0 uM
Serine/threonine-protein kinase Chk2 (Homo sapiens), sequence (O96017 whole entry): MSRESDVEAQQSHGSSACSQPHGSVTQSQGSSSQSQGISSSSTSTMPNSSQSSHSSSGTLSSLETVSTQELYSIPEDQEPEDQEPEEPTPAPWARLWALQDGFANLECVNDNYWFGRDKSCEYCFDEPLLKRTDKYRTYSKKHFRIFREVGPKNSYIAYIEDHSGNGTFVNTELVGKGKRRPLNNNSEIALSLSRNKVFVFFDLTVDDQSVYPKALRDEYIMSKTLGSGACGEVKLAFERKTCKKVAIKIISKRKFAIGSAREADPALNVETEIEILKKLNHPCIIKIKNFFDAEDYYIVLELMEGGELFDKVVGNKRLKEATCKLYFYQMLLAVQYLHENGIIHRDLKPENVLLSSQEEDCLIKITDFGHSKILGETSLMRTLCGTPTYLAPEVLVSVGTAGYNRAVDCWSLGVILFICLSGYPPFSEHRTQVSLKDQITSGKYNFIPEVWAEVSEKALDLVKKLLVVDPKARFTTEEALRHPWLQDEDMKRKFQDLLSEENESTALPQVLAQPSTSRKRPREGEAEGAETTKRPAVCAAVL

[8] = biological target: Ephrin type-A receptor 4 (Homo sapiens) (UniProt P54764); assay: EPHA4 Invitrogen selectivity data (BI); settings: Compound concentration 3.0 uM
[9] = biological target: LIM domain kinase 1 (Homo sapiens) (UniProt P53667); assay: LIMK1 Invitrogen selectivity data (BI); settings: Compound concentration 3.0 uM
LIM domain kinase 1 (Homo sapiens), sequence (P53667 whole entry, looked up, the tested form may be a part): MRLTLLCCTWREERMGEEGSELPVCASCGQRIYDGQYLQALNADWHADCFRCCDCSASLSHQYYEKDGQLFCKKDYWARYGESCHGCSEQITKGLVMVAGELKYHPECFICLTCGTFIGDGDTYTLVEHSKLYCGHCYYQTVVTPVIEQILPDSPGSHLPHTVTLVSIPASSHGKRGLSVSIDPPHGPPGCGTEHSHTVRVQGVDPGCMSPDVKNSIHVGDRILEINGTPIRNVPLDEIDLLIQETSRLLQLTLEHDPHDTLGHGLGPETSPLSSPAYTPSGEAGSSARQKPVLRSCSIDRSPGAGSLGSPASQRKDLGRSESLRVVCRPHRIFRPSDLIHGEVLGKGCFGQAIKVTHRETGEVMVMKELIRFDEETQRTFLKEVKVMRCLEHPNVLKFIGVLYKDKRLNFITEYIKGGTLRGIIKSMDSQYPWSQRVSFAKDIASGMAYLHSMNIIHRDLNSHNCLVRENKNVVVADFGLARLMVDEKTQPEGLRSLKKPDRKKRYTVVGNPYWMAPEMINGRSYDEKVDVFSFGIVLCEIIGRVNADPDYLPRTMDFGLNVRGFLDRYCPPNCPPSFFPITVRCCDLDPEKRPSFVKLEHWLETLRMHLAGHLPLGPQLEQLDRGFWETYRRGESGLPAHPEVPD

[10] = biological target: T1, Dual specificity mitogen-activated protein kinase kinase 6 (Homo sapiens) (UniProt P52564); assay: MAP2K6 Invitrogen selectivity data (BI); settings: Compound concentration 3.0 uM
T1 sequence (whole entry): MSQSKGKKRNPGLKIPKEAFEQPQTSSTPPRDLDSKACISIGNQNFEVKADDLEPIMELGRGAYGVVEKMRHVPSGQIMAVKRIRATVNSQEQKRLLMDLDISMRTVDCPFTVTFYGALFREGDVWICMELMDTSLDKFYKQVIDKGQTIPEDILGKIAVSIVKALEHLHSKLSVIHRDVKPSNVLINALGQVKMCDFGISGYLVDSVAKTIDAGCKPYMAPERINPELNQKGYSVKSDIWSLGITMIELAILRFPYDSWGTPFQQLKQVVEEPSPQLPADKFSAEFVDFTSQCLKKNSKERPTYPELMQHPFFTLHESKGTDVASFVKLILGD

[11] = biological target: T2, Serine/threonine-protein kinase Nek1 (Homo sapiens) (UniProt Q96PY6); assay: NEK1 Invitrogen selectivity data (BI); settings: Compound concentration 3.0 uM
T2 sequence (whole entry): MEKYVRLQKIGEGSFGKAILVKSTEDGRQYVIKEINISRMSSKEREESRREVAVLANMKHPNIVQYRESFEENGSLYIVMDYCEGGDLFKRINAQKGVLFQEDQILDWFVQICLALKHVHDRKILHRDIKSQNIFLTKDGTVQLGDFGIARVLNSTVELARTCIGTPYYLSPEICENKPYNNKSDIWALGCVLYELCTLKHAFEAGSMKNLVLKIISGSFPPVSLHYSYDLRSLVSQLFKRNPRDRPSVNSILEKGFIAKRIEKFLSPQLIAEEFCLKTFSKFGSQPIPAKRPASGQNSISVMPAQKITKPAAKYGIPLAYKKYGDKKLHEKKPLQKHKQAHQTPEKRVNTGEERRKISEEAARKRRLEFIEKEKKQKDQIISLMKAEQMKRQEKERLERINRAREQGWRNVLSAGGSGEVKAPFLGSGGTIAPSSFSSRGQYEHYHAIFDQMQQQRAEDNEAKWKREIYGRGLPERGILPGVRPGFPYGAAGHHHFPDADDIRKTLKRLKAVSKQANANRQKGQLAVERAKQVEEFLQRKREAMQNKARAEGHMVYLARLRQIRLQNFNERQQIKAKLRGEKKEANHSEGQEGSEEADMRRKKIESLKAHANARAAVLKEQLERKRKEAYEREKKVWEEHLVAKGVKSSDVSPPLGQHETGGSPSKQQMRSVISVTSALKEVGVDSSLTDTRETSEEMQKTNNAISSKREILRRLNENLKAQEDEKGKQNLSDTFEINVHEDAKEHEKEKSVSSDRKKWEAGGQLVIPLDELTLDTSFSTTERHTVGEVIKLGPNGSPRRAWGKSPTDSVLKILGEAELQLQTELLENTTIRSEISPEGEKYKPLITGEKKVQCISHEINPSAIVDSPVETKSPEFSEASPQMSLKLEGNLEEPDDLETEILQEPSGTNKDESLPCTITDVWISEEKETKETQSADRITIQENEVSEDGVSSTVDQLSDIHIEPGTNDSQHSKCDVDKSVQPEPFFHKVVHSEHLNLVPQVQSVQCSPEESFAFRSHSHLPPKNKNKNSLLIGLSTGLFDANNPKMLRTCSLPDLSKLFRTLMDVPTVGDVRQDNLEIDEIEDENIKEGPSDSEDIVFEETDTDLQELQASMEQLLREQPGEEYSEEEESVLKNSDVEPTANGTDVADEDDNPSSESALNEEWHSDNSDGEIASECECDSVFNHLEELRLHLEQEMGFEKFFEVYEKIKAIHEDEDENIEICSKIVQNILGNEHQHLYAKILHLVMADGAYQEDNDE

[12] = system: Platelet-derived growth factor receptor alpha (Homo sapiens), P16234 [T674I]; assay: PDGFRA T674I Invitrogen selectivity data (BI); settings: Compound concentration 3.0 uM
Platelet-derived growth factor receptor alpha (Homo sapiens), P16234 [T674I], sequence (P16234 whole entry T674I): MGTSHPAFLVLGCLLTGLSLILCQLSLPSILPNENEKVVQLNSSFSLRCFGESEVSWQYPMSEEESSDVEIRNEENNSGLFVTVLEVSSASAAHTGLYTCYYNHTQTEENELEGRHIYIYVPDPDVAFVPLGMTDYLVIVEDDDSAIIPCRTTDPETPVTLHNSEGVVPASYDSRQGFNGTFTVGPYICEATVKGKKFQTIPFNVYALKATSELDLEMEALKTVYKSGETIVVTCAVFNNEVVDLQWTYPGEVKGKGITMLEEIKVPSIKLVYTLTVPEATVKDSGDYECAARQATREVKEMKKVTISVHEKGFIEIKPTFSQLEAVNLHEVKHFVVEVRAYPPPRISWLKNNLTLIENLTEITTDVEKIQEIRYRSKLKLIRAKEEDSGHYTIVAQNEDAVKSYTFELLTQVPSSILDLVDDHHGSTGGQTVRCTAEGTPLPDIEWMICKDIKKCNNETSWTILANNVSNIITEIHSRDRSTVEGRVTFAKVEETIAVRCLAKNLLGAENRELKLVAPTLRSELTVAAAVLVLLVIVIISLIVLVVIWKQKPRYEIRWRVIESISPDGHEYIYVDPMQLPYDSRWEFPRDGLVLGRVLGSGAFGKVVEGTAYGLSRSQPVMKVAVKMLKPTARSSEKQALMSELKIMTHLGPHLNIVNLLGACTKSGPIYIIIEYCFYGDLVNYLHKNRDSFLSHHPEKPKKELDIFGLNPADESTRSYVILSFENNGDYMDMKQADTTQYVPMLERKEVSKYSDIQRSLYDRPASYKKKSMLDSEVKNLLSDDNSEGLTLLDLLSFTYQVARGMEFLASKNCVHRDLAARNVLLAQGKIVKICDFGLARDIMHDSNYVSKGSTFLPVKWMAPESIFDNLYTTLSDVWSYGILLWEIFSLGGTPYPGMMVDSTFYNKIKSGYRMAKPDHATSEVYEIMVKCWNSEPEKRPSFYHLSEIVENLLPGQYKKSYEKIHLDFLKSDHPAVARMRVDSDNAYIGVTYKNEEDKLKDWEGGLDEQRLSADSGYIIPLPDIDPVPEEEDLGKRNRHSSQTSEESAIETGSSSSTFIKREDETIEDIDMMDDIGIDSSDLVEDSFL

[13] = biological target: SRSF protein kinase 1 (Homo sapiens) (UniProt Q96SB4); assay: SRPK1 Invitrogen selectivity data (BI); settings: Compound concentration 3.0 uM
SRSF protein kinase 1 (Homo sapiens), sequence (Q96SB4 whole entry): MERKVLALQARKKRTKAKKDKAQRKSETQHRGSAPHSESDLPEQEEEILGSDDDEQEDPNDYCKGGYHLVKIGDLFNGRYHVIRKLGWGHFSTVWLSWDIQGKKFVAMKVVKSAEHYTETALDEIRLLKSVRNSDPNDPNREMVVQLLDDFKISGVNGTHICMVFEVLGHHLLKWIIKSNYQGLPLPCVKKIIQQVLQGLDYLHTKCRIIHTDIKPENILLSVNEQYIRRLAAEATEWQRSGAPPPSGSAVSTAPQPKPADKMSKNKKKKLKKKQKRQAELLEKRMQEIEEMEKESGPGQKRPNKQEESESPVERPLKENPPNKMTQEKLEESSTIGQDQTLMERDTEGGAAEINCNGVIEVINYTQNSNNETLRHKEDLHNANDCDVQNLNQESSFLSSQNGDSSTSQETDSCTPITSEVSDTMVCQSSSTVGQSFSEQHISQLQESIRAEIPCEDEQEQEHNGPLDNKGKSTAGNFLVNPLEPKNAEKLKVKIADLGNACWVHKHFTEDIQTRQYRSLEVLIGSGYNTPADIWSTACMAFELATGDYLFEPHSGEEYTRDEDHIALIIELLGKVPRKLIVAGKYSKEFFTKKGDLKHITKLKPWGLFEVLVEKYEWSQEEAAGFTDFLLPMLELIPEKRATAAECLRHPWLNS

[14] = biological target: T3, Tyrosine-protein kinase ZAP-70 (Homo sapiens) (UniProt P43403); assay: ZAP70 Invitrogen selectivity data (BI); settings: Compound concentration 3.0 uM
T3 sequence (whole entry): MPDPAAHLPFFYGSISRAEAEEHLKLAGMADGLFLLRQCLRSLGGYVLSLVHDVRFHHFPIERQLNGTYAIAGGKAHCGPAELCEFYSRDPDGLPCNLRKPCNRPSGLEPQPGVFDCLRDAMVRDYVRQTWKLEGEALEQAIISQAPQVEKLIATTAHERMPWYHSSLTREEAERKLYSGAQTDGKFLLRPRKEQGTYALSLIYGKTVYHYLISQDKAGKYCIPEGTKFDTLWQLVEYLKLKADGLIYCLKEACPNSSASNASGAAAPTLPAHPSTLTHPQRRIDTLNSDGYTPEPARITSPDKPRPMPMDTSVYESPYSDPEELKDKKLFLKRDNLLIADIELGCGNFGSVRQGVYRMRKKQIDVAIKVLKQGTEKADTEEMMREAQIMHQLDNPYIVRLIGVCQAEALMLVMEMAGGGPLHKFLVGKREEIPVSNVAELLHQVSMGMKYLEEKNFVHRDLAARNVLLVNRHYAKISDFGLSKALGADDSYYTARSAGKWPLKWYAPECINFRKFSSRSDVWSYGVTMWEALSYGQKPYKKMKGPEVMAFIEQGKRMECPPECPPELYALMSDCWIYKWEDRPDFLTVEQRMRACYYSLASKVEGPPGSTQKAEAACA

Measured: residual activity

Protein kinase C epsilon type (Homo sapiens), sequence (Q02156 whole entry): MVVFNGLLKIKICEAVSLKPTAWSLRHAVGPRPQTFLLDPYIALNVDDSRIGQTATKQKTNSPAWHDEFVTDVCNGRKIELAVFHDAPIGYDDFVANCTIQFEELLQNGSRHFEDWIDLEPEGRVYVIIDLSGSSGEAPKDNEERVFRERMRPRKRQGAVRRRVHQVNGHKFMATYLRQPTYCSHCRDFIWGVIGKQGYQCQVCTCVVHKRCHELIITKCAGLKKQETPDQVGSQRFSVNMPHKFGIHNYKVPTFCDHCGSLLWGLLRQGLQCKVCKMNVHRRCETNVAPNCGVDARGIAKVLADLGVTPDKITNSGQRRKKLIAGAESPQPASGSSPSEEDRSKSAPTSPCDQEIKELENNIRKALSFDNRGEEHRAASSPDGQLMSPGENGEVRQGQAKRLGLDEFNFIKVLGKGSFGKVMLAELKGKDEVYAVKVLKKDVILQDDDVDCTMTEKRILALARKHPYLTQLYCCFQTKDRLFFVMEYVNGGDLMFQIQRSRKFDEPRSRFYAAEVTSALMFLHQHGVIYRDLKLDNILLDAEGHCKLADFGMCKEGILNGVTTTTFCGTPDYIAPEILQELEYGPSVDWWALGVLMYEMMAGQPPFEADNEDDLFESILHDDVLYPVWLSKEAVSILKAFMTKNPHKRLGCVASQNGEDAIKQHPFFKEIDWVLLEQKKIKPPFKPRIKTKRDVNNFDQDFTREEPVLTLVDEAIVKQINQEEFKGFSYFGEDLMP

CN(C)C(=O)Cn1cc(-c2nc(C3(c4ccc(-c5cnc(N)nc5)cc4)CC3)no2)cn1 [BI 0153]
inactive: [1] 90%

CN(C)C(=O)Cn1cc(-c2nc([C@@](C)(c3ccc(-c4cnc(N)nc4)cc3)C3CC3)no2)cn1 [BI 665915]
inactive: [2] 95% | Caspase-3 (Homo sapiens) 98% | [3] 114% | [4] 108% | [5] 129% | [6] 97% | [7] 99% | [8] 95% | [9] 96% | [10] 103% | [11] 104% | [12] 87% | [13] 97.5% | [14] 96%
